Data on four compounds can be found in US11851391B2, “Antifungal compounds and methods of forming the same” (University of Kentucky Research Foundation, priority 2018, dated 2023).

SMILES strings stand for the structures. A value given as a limit tells only on which side of the number the result lay.

By IC50 is commonly meant the concentration that inhibits the measured activity by half.

For one data set, the target named is hERG channel (Homo sapiens, UniProt Q12809). Briefly: in vitro. The settings on record: for IC50 at 60 min: human. The source says: The HEK-293 cell line stably expressing the hERG potassium channel (accession number U04270) referred to as hERG-HEK cells were received at passage 11 from Millipore (CYL3006, lot 2, Billerica, MA). [^3H]-Dofetilide (specific activity of 80 Ci/mmol; labeled on the N-methyl group) was obtained from American Radiolabeled Chemicals, St. Louis, MO Other chemicals and solvents were obtained from Sigma-Aldrich (Milwaukee, WI) with exceptions of polyethylenimine (PEI), which was obtained from Fluka/Sigma-Aldrich (St. Louis, MO), and Minimium Essential Medium (MEM) with GlutaMAX™ and phenol red, MEM non-essential amino acids solution (NEAA, 100×), G418 disulfate salt solution, fetal bovine serum (FBS), 0.05% Trypsin-EDTA 1× with phenol red, and Hank's balanced salt solution (HBSS), which were obtained from Life Technologies (Carlsbad, CA).
The hERG-HEK cells were cultured according to the protocol provided by Millipore. Cells were maintained in MEM (with GlutaMAX™ and phenol red) supplemented with 10% FBS, 1% NEAA and 400 μg/mL G418 disulfate salt, and incubated at 37° C. in a humidified atmosphere with 5% CO2. Frozen aliquots of cells were transferred into T-75 cm^2 flasks and allowed to adhere for 4-8 h. The medium was replaced every 2 days. Passages were carried out at least 3 times after thawing at 6-day intervals. Cells were dissociated with trypsin/EDTA and seeded into new 150×25 mm dishes at 2-3×10^6 cells per dish and placed at 30° C., 5% CO2, for 40-48 h prior to membrane preparation. Membrane preparation occurred 6 days after the last passage (passage 20).
Cell membrane preparation was based on previous methods. Cells were rinsed twice with HBSS at 37° C. and collected by scraping the dishes in ˜20 mL of ice-cold 0.32 M sucrose and homogenized on ice with a Teflon pestle using a Maximal Digital homogenizer (Fisher Scientific, Pittsburgh, PA) at ˜280 rpm for 30 sec. Homogenates were centrifuged at 300 g and 800 g for 4 min each at 4° C. Pellets were resuspended in 9 mL of ice-cold Milli-Q H2O and osmolarity restored by addition of 1 mL of 500 mM Tris buffer (pH 7.4) followed by suspension and centrifugation at 20,000 g for 30 min at 4° C. Pellets were homogenized in 2 mL assay buffer (50 mM Tris, 10 mM KCl, and 1 mM MgCl2, 4° C.) and aliquots of cell membrane suspensions were stored at −80° C. and thawed the day of the [^3H]-dofetilide binding assay. Protein content was determined prior to the assay using a Bradford protein assay with bovine albumin as the standard.
[^3H]-Dofetilide binding assays using hERG-HEK293 cell membranes were based on previous methods. Assays determining concentration-response were conducted in duplicate, and three independent assays were performed for each analogue evaluated. Cell membrane suspension (5 μg) was added to duplicate tubes containing assay buffer, 25 μL of a single concentration of N,N-dialkylaminostilbene agent (FIDAS agent) (concentration range of 10 nM-100 μM for each experiment), and 25 μL of [^3H]-dofetilide (5 nM, final concentration) for an assay volume of 250 μL. Binding occurred for 60 min at 25° C. and was terminated by rapid filtration through Whatman GF/B filters, which were pre-soaked in 0.25% PEI overnight, using a Brandel cell/membrane harvester (M-48; Brandel Inc., Gaithersburg, MD). […] Radioactivity was determined by liquid scintillation spectrometry using the Tri-Carb 2100-TR Liquid Scintillation Analyzer (Perkin-Elmer Life and Analytical Sciences).

For data set [1], the system named is C. albicans ATCC 10231 (strain A) biofilms. Briefly: Biofilm disruption assay (XTT reduction). It is filed as cell-based, Candida albicans. Here is the method: (§1) Biofilms are complex communities of one or more species of microorganisms encased in extracellular polymeric substances and attached to not only a solid surface but also to each other. Because of their complex, matrix-like nature, antifungal agents are often unable to reach the pathogens embedded in these networks. […] This increase reflected some resistance of Candida biofilms against the bishydrazone 17c.
(§2) Biofilm disruption assays were performed to assess the effectiveness of compound 17c against sessile yeast cells for two representative yeast strains, C. albicans ATCC 10231 (strain A) and C. albicans ATCC 64124 (strain B). VOR was used as a positive control. Biofilm assays were performed in 96-well plates using XTT [2,3-bis(2-methoxy-4-nitro-5-sulfophenyl)-2H-tetrazolium-5-carboxanilide] to measure the viability of the biofilm as previously described. An overnight culture of the yeast cells was grown at 35° C. in YPD medium with shaking at 200 rpm. The overnight culture was diluted in RPMI 1640 medium to an OD600 between 0.12 and 0.15 to make a working stock. The working stock was transferred to 96-well plates in 100 μL aliquots, leaving one column empty for the sterile controls. […] 80 μL of liquid from each well was transferred to new plates, which were then read for absorbance at 450 nm with a SpectraMax M5 plate reader (Molecular Devices, Sunnyvale, CA, USA). […]
On the technique in general: Tetrazolium assays rely on reduction of a dye to a coloured formazan, in cell work by metabolically active cells.

Data set [2] deals with C. albicans ATCC 64124 (strain B) biofilms. Briefly: Biofilm disruption assay (XTT reduction). It is filed as cell-based, Candida albicans. The protocol:
as §1, §2

hERG channel, sequence (Q12809 whole entry): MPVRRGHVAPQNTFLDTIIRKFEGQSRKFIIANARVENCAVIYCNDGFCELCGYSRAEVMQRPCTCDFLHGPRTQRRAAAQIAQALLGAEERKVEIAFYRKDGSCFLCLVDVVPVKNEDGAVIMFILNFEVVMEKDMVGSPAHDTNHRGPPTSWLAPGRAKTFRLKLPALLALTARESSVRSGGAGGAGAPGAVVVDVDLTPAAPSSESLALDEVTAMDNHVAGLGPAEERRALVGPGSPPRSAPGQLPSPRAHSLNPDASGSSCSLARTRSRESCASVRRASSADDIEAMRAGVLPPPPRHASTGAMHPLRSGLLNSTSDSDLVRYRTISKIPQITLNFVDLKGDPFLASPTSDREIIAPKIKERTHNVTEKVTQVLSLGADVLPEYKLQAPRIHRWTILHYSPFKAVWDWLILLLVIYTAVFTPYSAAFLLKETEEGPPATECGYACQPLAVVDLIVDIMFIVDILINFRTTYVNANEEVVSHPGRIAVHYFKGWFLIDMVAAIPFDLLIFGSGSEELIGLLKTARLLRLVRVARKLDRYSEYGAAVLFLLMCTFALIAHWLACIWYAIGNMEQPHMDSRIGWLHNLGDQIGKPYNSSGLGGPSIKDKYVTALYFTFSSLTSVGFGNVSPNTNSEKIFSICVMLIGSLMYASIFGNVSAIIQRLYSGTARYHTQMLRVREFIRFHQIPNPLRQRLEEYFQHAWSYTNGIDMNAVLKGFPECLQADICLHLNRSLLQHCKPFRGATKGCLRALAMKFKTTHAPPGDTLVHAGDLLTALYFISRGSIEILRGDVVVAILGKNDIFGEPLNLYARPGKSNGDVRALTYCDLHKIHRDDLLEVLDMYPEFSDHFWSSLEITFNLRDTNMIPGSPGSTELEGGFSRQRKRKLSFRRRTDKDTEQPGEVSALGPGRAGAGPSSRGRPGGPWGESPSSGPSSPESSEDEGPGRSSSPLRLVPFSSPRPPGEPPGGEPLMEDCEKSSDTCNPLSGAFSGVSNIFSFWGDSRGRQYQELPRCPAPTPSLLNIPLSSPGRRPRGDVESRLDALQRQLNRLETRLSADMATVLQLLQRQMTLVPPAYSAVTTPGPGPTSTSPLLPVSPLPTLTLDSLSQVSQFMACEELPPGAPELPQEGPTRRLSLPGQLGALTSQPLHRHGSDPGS

Take `COc1ccc(N/N=C/c2ccc(-c3cccc(/C=N/Nc4ccc(OC)cc4)c3)cc2)cc1` [Compound 15a]: at hERG channel, the IC50 at 60 min was greater than 30 µM.

`COc1ccc(N/N=C/c2ccc(-c3ccc(/C=N/Nc4ccc(OC)cc4)cc3)cc2)cc1` [Compound 15b] came in with an IC50 at 60 min at hERG channel greater than 30 µM. Regarding `Fc1ccc(N/N=C/c2ccc(-c3cccc(/C=N/Nc4ccc(F)cc4)c3)cc2)cc1` [Compound 17a], the IC50 at 60 min against hERG channel is greater than 30 µM. As to `C/C(=N\Nc1ccc(F)cc1)c1ccc(-c2ccc(/C(C)=N/Nc3ccc(F)cc3)cc2)cc1` [Compound 17c, 4,4′-bis((E)-1-(2-(4-fluorophenyl)hydrazono)ethyl)-1,1′-biphenyl], in data set [1], the “increase of SMIC values compared to planktonic MIC value” is reported as 4- to 16 fold. In data set [2], the “increase of SMIC values compared to planktonic MIC value” is given as 4- to 8 fold. Also, at hERG channel, the “hERG inhibition (in words)” value is “no hERG inhibition” and the IC50 at 60 min is greater than 30 µM.
